The supplement of paper PMC10307832

Experiments:
Test in all cases: relative viability (nuclei count vs DMSO), 5 days (fraction); higher = more cells survive
EMC-BAC-2 = test system: EMC-BAC-2
Method in brief: (§1)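 Lung cancer cell lines, seeded in 1536-well plates, were treated the following day by pin tool with a single drug or with five library-drug doses (not always all listed) in √10 steps on top of a fixed anchor-drug dose. Cells were fixed and nuclei stained in one step after 5 days, and nuclei were counted. Relative viability is the nuclei count for treated wells divided by that for vehicle wells, reported as medians of duplicate plates.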

NCI-H358 = test system: NCI-H358
Method in brief: as §1

CAL-12T = test system: CAL-12T
Method in brief: as §1

NCI-H1975 = test system: NCI-H1975
Method in brief: as §1

NCI-H3122 = test system: NCI-H3122
Method in brief: as §1

NCI-H1993 = test system: NCI-H1993
Method in brief: as §1

HOP-62 = test system: HOP-62
Method in brief: as §1

NCI-H1666 = test system: NCI-H1666
Method in brief: as §1

HCC-78 = test system: HCC-78
Method in brief: as §1

NCI-H322M = test system: NCI-H322M
Method in brief: as §1

UMC-11 = test system: UMC-11
Method in brief: as §1

LXF-289 = test system: LXF-289
Method in brief: as §1

EPLC-272H = test system: EPLC-272H
Method in brief: as §1

NCI-H2126 = test system: NCI-H2126
Method in brief: as §1

NCI-H2085 = test system: NCI-H2085
Method in brief: as §1

COR-L 105 = test system: COR-L 105
Method in brief: as §1

NCI-H1755 = test system: NCI-H1755
Method in brief: as §1

ChaGo-K-1 = test system: ChaGo-K-1
Method in brief: as §1

ABC-1 = test system: ABC-1
Method in brief: as §1

NCI-H2023 = test system: NCI-H2023
Method in brief: as §1

NCI-H441 = test system: NCI-H441
Method in brief: as §1

NCI-H1915 = test system: NCI-H1915
Method in brief: as §1

HCC-15 = test system: HCC-15
Method in brief: as §1

With `CC(C)Oc1cc(Nc2nc(N[C@@H](C)c3ccc(F)cn3)ncc2Cl)n[nH]1` [AZ23] + CS(=O)(=O)N1CCN(Cc2cc3nc(-c4cccc5[nH]ncc45)nc(N4CCOCC4)c3s2)CC1 [Pictilisib] (partner 1 µM) the relative viability (EMC-BAC-2; first compound 0.01 µM) was 0.535, the relative viability (EMC-BAC-2; first compound 0.03162 µM) was 0.576 and the relative viability (EMC-BAC-2; first compound 0.3162 µM) was 0.51. The relative viability (NCI-H358; first compound 0.01 µM) was 0.404, the relative viability (NCI-H358; first compound 0.03162 µM) was 0.329 and the relative viability (NCI-H358; first compound 0.3162 µM) was 0.324. It also gave a relative viability (CAL-12T; first compound 0.03162 µM) of 0.418, a relative viability (CAL-12T; first compound 0.3162 µM) of 0.406 and a relative viability (NCI-H1975; first compound 0.01 µM) of 0.307. The relative viability (NCI-H1975; first compound 0.03162 µM) was 0.327, the relative viability (NCI-H1975; first compound 0.3162 µM) was 0.298 and the relative viability (NCI-H3122; first compound 0.01 µM) was 0.658. It also gave a relative viability (NCI-H3122; first compound 0.03162 µM) of 0.598, a relative viability (NCI-H3122; first compound 0.3162 µM) of 0.579 and a relative viability (NCI-H1993; first compound 0.01 µM) of 0.755. The relative viability (NCI-H1993; first compound 0.3162 µM) was 0.869, the relative viability (HOP-62; first compound 0.01 µM) was 0.635 and the relative viability (HOP-62; first compound 0.03162 µM) was 1.11. It also gave a relative viability (HOP-62; first compound 0.3162 µM) of 0.874, a relative viability (NCI-H1666; first compound 0.01 µM) of 0.51 and a relative viability (NCI-H1666; first compound 0.03162 µM) of 0.559. For the same molecule, the relative viability (NCI-H1666; first compound 0.3162 µM) was 0.417, the relative viability (HCC-78; first compound 0.01 µM) was 0.192 and the relative viability (HCC-78; first compound 0.03162 µM) was 0.195. The relative viability (HCC-78; first compound 0.3162 µM) was 0.195, the relative viability (NCI-H322M; first compound 0.01 µM) was 0.477 and the relative viability (NCI-H322M; first compound 0.03162 µM) was 0.497. The relative viability (NCI-H322M; first compound 0.3162 µM) was 0.561, the relative viability (UMC-11; first compound 0.01 µM) was 0.762 and the relative viability (UMC-11; first compound 0.03162 µM) was 0.963. For the same molecule, the relative viability (UMC-11; first compound 0.3162 µM) was 0.818, the relative viability (LXF-289; first compound 0.01 µM) was 0.969 and the relative viability (LXF-289; first compound 0.03162 µM) was 0.818. The relative viability (LXF-289; first compound 0.3162 µM) was 0.788, the relative viability (EPLC-272H; first compound 0.01 µM) was 0.258 and the relative viability (EPLC-272H; first compound 0.03162 µM) was 0.349. For the same molecule, the relative viability (NCI-H2126; first compound 0.01 µM) was 0.485, the relative viability (NCI-H2126; first compound 0.03162 µM) was 0.514 and the relative viability (NCI-H2126; first compound 0.3162 µM) was 0.452. It also gave a relative viability (NCI-H2085; first compound 0.01 µM) of 0.556, a relative viability (NCI-H2085; first compound 0.03162 µM) of 0.563 and a relative viability (NCI-H2085; first compound 0.3162 µM) of 0.446. For the same molecule, the relative viability (COR-L 105; first compound 0.01 µM) was 0.407, the relative viability (COR-L 105; first compound 0.03162 µM) was 0.417 and the relative viability (COR-L 105; first compound 0.3162 µM) was 0.383. For the same molecule, the relative viability (NCI-H1755; first compound 0.01 µM) was 0.41, the relative viability (NCI-H1755; first compound 0.03162 µM) was 0.478 and the relative viability (NCI-H1755; first compound 0.3162 µM) was 0.464. For the same molecule, the relative viability (ChaGo-K-1; first compound 0.01 µM) was 0.658, the relative viability (ChaGo-K-1; first compound 0.03162 µM) was 1.18 and the relative viability (ChaGo-K-1; first compound 0.3162 µM) was 0.661. For the same molecule, the relative viability (ABC-1; first compound 0.01 µM) was 0.634, the relative viability (ABC-1; first compound 0.03162 µM) was 0.909 and the relative viability (ABC-1; first compound 0.3162 µM) was 0.841. For the same molecule, the relative viability (NCI-H2023; first compound 0.03162 µM) was 0.248, the relative viability (NCI-H2023; first compound 0.3162 µM) was 0.192 and the relative viability (NCI-H441; first compound 0.01 µM) was 0.658. The relative viability (NCI-H441; first compound 0.03162 µM) was 0.601, the relative viability (NCI-H441; first compound 0.3162 µM) was 0.457 and the relative viability (NCI-H1915; first compound 0.01 µM) was 0.988. The relative viability (NCI-H1915; first compound 0.03162 µM) was 0.979, the relative viability (NCI-H1915; first compound 0.3162 µM) was 0.945 and the relative viability (HCC-15; first compound 0.01 µM) was 0.968. For the same molecule, the relative viability (HCC-15; first compound 0.03162 µM) was 0.73 and the relative viability (HCC-15; first compound 0.3162 µM) was 0.782.
